# Measured values from patent USRE38115E1, “Dextromethorphan and an oxidase inhibitor for treating intractable conditions” (Center for Neurologic Study, priority 1996, dated 2003).
# pKi: −log10 of the molar value. Values joined by “and” are separate entries in the source; they are usually repeats but may differ in a detail not shown here. Equal values may be shown once.
# Columns and labels:
# debrisoquin hydroxylase = debrisoquin hydroxylase (Homo sapiens, UniProt P10635); settings: cited from earlier work
# debrisoquin hydroxylase, sequence (P10635 whole entry): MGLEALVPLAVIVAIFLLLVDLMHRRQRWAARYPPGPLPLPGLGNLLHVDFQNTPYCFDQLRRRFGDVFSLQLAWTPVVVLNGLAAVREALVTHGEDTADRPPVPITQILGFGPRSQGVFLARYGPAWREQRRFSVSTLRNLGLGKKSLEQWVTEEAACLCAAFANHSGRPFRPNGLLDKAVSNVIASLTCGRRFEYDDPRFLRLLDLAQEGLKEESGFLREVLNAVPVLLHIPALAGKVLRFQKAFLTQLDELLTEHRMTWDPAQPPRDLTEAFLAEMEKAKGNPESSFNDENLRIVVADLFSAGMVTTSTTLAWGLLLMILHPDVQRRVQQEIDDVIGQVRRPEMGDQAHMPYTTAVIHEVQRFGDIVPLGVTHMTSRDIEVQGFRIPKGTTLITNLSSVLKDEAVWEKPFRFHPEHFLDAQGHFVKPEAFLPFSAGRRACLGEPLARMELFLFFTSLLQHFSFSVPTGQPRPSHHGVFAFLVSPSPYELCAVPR
# [1] = tested on: dextromethorphan metabolism; test: Urinary DM/DR ratios (Example 1); settings: urine, several hours after single 60 mg oral DM; ALS patients, one value per patient
# Experimental: Six patients suffering from ALS were administered orally a single 60 mg dextromethorphan dose. Several hours later, a urine sample was collected, and the urine concentrations of dextromethorphan (DM) and dextrorphan (DR) were measured as described below to determine a DM/DR ratio.
# To this was added 2000 units of betaglucuronidase in 1 mL of acetate buffer (0.1M, pH 5.0). The mixture was incubated for 18 hours at 37° C. and then extracted by adding 1 mL of phosphate buffer (pH 12, 0.10M) and 7 mL of n-butanol/hexane (10:90 v/v). After mixing and centrifugation, the organic layer was transferred to a clean tube, acidified with 400 uL of 0.01N HCL and 20 microliters (uL) of aqueous phase injected into a high performance liquid chromatography (HPLC) system. The HPLC used a phenyl column equilibrated with a mobile phase of acetonitrile:water (51:49 v/v) containing 10 mM KHPO4, 10 mM hexane sulfonic acid, pH 4.0 (flow rate 1.2 mL/min).
# Briefly, 0.5 ml urine samples were spiked with 500 nanograms (ng) of dimethacrine. The urine pH was adjusted to […] with 0.1M acetate buffer (usually about 1.0 ml), and beta-glucuronidase was added (2000 units/ml urine). The mixture was incubated and shaken at 37° C. for 18 hours. The urine was subsequently adjusted to pH 10-11 with 1.0 mL of phosphate buffer and the urine extracted with 5 mL of dichloromethane. […]
# [2] = Plasma concentrations of DM (Example 2); type: in vivo, human; settings: DM 120 MG/DAY oral, quinidine 0; blood 10-12 hours later; one value per patient; listed as dextromethorphan
# Experimental: Between 10 and 12 hours later, blood was sampled, blood plasma was isolated by centrifugation, and the plasma was analyzed to determine the DM concentration using the thebaine/HPLC method.
# Between 10 and 12 hours later, blood was sampled and the plasma was analyzed for DM using thebaine/HPLC.
# DM oxidation = test: Urinary DM/DRP ratio with other antioxidants (Example 4); settings: urine; for baseline DM/DRP ratio: DM alone
# Experimental: In these tests, DM was administered at a constant dosage to various individuals, all were healthy volunteers. DM was taken both before and after a candidate antioxidant was taken, and urine samples were collected at appropriate times and analyzed to determine the quantity of DM and its principle metabolite dextrorphan (DRP) in the urine.
# Twelve healthy volunteers were studied.
# After the baseline DM/DRP value for each volunteer had been determined, a candidate antioxidant was administered. […] After an appropriate delay, a second urine sample was obtained and analyzed. Each agent was administered to two patients.
# [3] = tested on: patients with emotional lability; settings: patients with bilateral neurological damage; described in U.S. Pat. No. 5,206,248; cited from earlier work
smiles,measurement,setting,value
C=CCOc1ccccc1OCC(O)CNC(C)C (stereo not shown) [oxprenolol],pKi,debrisoquin hydroxylase,≥ 4.30
CNCCC=C1c2ccccc2CCc2ccccc21 [nortriptyline],pKi,debrisoquin hydroxylase,≥ 4.30
"COc1ccc2c(c1)[C@@]13CCCC[C@H]1[C@@H](C2)N(C)CC3 [DM, (+)-3-methoxy-N-methylmorphinan]","DM/DR Ratio, no quinidine",[1],<0.0002 and 0.054 and 0.0048 and 0.0220 and 0.0002 and 0.0003
same,DEXTROMETHORPHAN PLASMA LEVEL,[2],9.3 NG/ML and NOT DETECTABLE (2×) and 16.5 NG/ML and 6.05 NG/ML
same,baseline DM/DRP ratio,"DM oxidation; extensive metabolizers, healthy volunteers",≤ 0.06
same,baseline DM/DRP ratio,DM oxidation; one poor metabolizer (control),1.338
same,"DM/DRP ratio, pre-drug baseline","DM oxidation; DM before candidate antioxidant, single subjects",0.02 (2×) and 0.00 (3×) and 0.03 and 0.06 (2×)
same,effect on symptoms of emotional lability,[3],not observed in any patients who received DM alone
Cc1cccc(C)c1OCC(C)N (stereo not shown) [mexiletine],pKi,debrisoquin hydroxylase,≥ 4.30
CC(CCc1ccccc1)NCC(O)c1ccc(O)c(C(N)=O)c1 (stereo not shown) [labetalol],pKi,debrisoquin hydroxylase,≥ 4.30
